Molecules are shown by their SMILES.

What is called IC50 is the midpoint of a concentration-inhibition curve. Read a low IC50 as greater potency in that assay.

The target of assay [1] is T1, NAMPT (Homo sapiens, UniProt P43490). Kind of assay: TR-FRET Binding Assay of NAMPT with PRPP. Particulars: 2 nM NAMPT, 2 nM probe, 200 µM PRPP and 2.5 mM ATP, equilibrated 16 hours. Put shortly:
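TR-FRET probe displacement with 2 nM NAMPT, 2 nM probe and 1 nM Tb-anti-His antibody in the presence of 200 µM PRPP and 2.5 mM ATP, 2% DMSO (all final). Equilibrated 16 hours before reading to permit possible enzymatic modification of compounds.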
(In general: Time-resolved FRET reads energy transfer from a long-lived donor to a nearby acceptor.)

For a further assay, the system named is PC3 cells. Kind of assay: NAMPT Cell Proliferation Assay (Cell Titer Glo). Type of assay: cell-based. Particulars: Homo sapiens, PC-3, 120 h, incubated 5 days, cell viability. In short, it runs like this:
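PC3 cells (500/well, RPMI with 10% heat-inactivated FBS) were exposed to 10-fold compound dilutions from […] for 5 days at 37 °C, 5% CO2. Viability was read with Cell Titer Glo; IC50 from sigmoidal fit of percent inhibition.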
A general note: Cellular ATP, detected with luciferase, serves as a proxy for viable cell number.

The target in assay [2] is T1, NAMPT. The assay is described as follows: Time-Resolved Fluorescence Resonance Energy Transfer (TR-FRET) Binding Assay of NAMPT. The settings on record: 6.8 nM NAMPT, 200 nM probe, equilibrated 3 hours, no substrates. Put shortly:
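Compound was mixed with enzyme, probe and antibody and equilibrated 3 h at room temperature. TR-FRET read at Ex 337 nm, Em 520/495 nm. Ratios were normalized to controls and fitted to a four-parameter logistic equation for IC50.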

T1 sequence (P43490 whole entry): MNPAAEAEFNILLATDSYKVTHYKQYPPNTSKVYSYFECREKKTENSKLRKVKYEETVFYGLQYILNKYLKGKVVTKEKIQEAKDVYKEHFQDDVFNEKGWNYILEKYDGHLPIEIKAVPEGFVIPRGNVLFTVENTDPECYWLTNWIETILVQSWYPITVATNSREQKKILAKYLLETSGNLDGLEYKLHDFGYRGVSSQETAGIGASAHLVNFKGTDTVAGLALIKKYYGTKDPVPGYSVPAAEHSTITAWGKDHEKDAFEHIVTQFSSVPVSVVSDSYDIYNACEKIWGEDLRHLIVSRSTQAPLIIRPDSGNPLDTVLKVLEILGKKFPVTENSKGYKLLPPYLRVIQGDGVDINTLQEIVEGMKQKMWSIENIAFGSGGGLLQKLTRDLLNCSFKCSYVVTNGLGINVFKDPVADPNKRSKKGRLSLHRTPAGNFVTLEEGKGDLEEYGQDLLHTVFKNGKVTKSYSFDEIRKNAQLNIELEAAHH

`CCCC(=O)N1CC(Oc2ccc(NC(=O)N3CC(c4cccnc4)C3)cc2)C1` [Example 129, N-{4-[(1-butanoylazetidin-3-yl)oxy]phenyl}-3-(pyridin-3-yl)azetidine-1-carboxamide]: the figures for the IC50 on NAMPT [1], with PC3 cells and on NAMPT [2] were 0.401 nM, 11.3 nM and 40 nM, respectively.
On to `CCC(=O)N1CC(Oc2ccc(NC(=O)N3CC(c4cccnc4)C3)cc2)C1` [Example 130, N-{4-[(1-propanoylazetidin-3-yl)oxy]phenyl}-3-(pyridin-3-yl)azetidine-1-carboxamide], for which the IC50 on NAMPT [1] was found to be 0.559 nM; in the assay on PC3 cells, 78.7 nM; on NAMPT [2], 84.7 nM.
As for `CCC(C)(C)C(=O)N1CC(Oc2ccc(NC(=O)N3CC(c4cccnc4)C3)cc2)C1` [Example 131, N-(4-{[1-(2,2-dimethylbutanoyl)azetidin-3-yl]oxy}phenyl)-3-(pyridin-3-yl)azetidine-1-carboxamide], the values for the IC50 on NAMPT [1], in the assay with PC3 cells and at NAMPT [2] were 0.491 nM, 8.18 nM and 7.72 nM, respectively.
As for `CC(C)CC(=O)N1CC(Oc2ccc(NC(=O)N3CC(c4cccnc4)C3)cc2)C1` [Example 132, N-(4-{[1-(3-methylbutanoyl)azetidin-3-yl]oxy}phenyl)-3-(pyridin-3-yl)azetidine-1-carboxamide], the IC50 on NAMPT [1] turned out to be 0.634 nM; in the assay on PC3 cells, 7.77 nM; on NAMPT [2], 19.1 nM.
Take `CC(C)(C)CC(=O)N1CC(Oc2ccc(NC(=O)N3CC(c4cccnc4)C3)cc2)C1` [Example 133, N-(4-{[1-(3,3-dimethylbutanoyl)azetidin-3-yl]oxy}phenyl)-3-(pyridin-3-yl)azetidine-1-carboxamide]: the IC50 on NAMPT [1] was 0.358 nM; with PC3 cells it was 4.43 nM; on NAMPT [2], 13.2 nM.
As for `O=C(CC(F)(F)F)N1CC(Oc2ccc(NC(=O)N3CC(c4cccnc4)C3)cc2)C1` [Example 134, 3-(pyridin-3-yl)-N-(4-{[1-(3,3,3-trifluoropropanoyl)azetidin-3-yl]oxy}phenyl)azetidine-1-carboxamide], the values for the IC50 on NAMPT [1], in the assay on PC3 cells and on NAMPT [2] were 0.317 nM, 28.3 nM and 54.2 nM, respectively.
On the same counts, the results for `CC1(C(=O)N2CC(Oc3ccc(NC(=O)N4CC(c5cccnc5)C4)cc3)C2)CC1` [Example 135, N-[4-({1-[(1-methylcyclopropyl)carbonyl]azetidin-3-yl}oxy)phenyl]-3-(pyridin-3-yl)azetidine-1-carboxamide] are 0.376 nM, 8.69 nM and 28.1 nM.
For `CCCC(C)C(=O)N1CC(Oc2ccc(NC(=O)N3CC(c4cccnc4)C3)cc2)C1` (stereo not drawn) [Example 136, N-(4-{[1-(2-methylpentanoyl)azetidin-3-yl]oxy}phenyl)-3-(pyridin-3-yl)azetidine-1-carboxamide], in that order: 0.544 nM, 7.42 nM and 15 nM.
Consider `CC(=O)N1CC(Oc2ccc(NC(=O)N3CC(c4cccnc4)C3)cc2)C1` [Example 137, N-{4-[(1-acetylazetidin-3-yl)oxy]phenyl}-3-(pyridin-3-yl)azetidine-1-carboxamide], for which the IC50 at NAMPT [1] came out at 0.44 nM; in the assay with PC3 cells, 51.6 nM; at NAMPT [2] it was 98.8 nM.
With `O=C(CC1CCCCC1)N1CC(Oc2ccc(NC(=O)N3CC(c4cccnc4)C3)cc2)C1` [Example 138, N-(4-{[1-(cyclohexylacetyl)azetidin-3-yl]oxy}phenyl)-3-(pyridin-3-yl)azetidine-1-carboxamide], the IC50 on NAMPT [1] is 0.596 nM; in the assay with PC3 cells, 8.38 nM; at NAMPT [2] it was 11.4 nM.
With `O=C(Nc1ccc(OC2CN(C(=O)C3CCCCC3)C2)cc1)N1CC(c2cccnc2)C1` [Example 139, N-(4-{[1-(cyclohexylcarbonyl)azetidin-3-yl]oxy}phenyl)-3-(pyridin-3-yl)azetidine-1-carboxamide], the IC50 on NAMPT [1] came to 0.442 nM; in the assay on PC3 cells, 7.81 nM; at NAMPT [2], 14.4 nM.
On to `O=C(Nc1ccc(OC2CN(C(=O)C3CC3)C2)cc1)N1CC(c2cccnc2)C1` [Example 140, N-(4-{[1-(cyclopropylcarbonyl)azetidin-3-yl]oxy}phenyl)-3-(pyridin-3-yl)azetidine-1-carboxamide], for which the IC50 on NAMPT [1] was found to be 0.181 nM; in the assay with PC3 cells, 26.3 nM; at NAMPT [2], 43 nM.
For `O=C(Nc1ccc(OC2CN(C(=O)c3cccs3)C2)cc1)N1CC(c2cccnc2)C1` [Example 141, 3-(pyridin-3-yl)-N-(4-{[1-(thiophen-2-ylcarbonyl)azetidin-3-yl]oxy}phenyl)azetidine-1-carboxamide], in that order: 0.249 nM, 8.33 nM and 17.6 nM.
For `O=C(Nc1ccc(OC2CN(C(=O)C3CCCC3)C2)cc1)N1CC(c2cccnc2)C1` [Example 142, N-(4-{[1-(cyclopentylcarbonyl)azetidin-3-yl]oxy}phenyl)-3-(pyridin-3-yl)azetidine-1-carboxamide], in that order: 0.339 nM, 7.91 nM and 24.6 nM.
For the molecule `O=C(CN1CCOCC1)N1CC(Oc2ccc(NC(=O)N3CC(c4cccnc4)C3)cc2)C1` [Example 143, N-(4-{[1-(morpholin-4-ylacetyl)azetidin-3-yl]oxy}phenyl)-3-(pyridin-3-yl)azetidine-1-carboxamide], the IC50 at NAMPT [1] is 0.763 nM; in the assay on PC3 cells, 82.2 nM; at NAMPT [2], 136 nM.
With `O=C(Nc1ccc(OC2CN(C(=O)c3cncs3)C2)cc1)N1CC(c2cccnc2)C1` [Example 144, 3-(pyridin-3-yl)-N-(4-{[1-(1,3-thiazol-5-ylcarbonyl)azetidin-3-yl]oxy}phenyl)azetidine-1-carboxamide], the results for the IC50 at NAMPT [1], in the assay on PC3 cells and on NAMPT [2] were 0.313 nM, 9.04 nM and 25.6 nM, respectively.
On the same counts, the results for `Cc1noc(C)c1C(=O)N1CC(Oc2ccc(NC(=O)N3CC(c4cccnc4)C3)cc2)C1` [Example 145, N-[4-({1-[(3,5-dimethyl-1,2-oxazol-4-yl)carbonyl]azetidin-3-yl}oxy)phenyl]-3-(pyridin-3-yl)azetidine-1-carboxamide] are 0.6 nM, 73.9 nM and 90.5 nM.
Consider `O=C(Nc1ccc(OC2CN(C(=O)c3ccsc3)C2)cc1)N1CC(c2cccnc2)C1` [Example 146, 3-(pyridin-3-yl)-N-(4-{[1-(thiophen-3-ylcarbonyl)azetidin-3-yl]oxy}phenyl)azetidine-1-carboxamide], for which the IC50 turned out to be 0.27 nM at NAMPT [1], 9.07 nM in the assay on PC3 cells and 15.1 nM at NAMPT [2].
Turning to `O=C(Nc1ccc(OC2CN(C(=O)c3ccno3)C2)cc1)N1CC(c2cccnc2)C1` [Example 148, N-(4-{[1-(1,2-oxazol-5-ylcarbonyl)azetidin-3-yl]oxy}phenyl)-3-(pyridin-3-yl)azetidine-1-carboxamide], the IC50 on NAMPT [1] turned out to be 0.321 nM; in the assay with PC3 cells, 16.7 nM; on NAMPT [2], 27.7 nM.
For the molecule `CN1CCN(CC(=O)N2CC(Oc3ccc(NC(=O)N4CC(c5cccnc5)C4)cc3)C2)CC1` [Example 149, N-[4-({1-[(4-methylpiperazin-1-yl)acetyl]azetidin-3-yl}oxy)phenyl]-3-(pyridin-3-yl)azetidine-1-carboxamide], the IC50 on NAMPT [1] came to 0.219 nM; in the assay on PC3 cells it was 76.5 nM; at NAMPT [2] it was 22.1 nM.

The values are drawn from patent US9296723B2, “NAMPT inhibitors” (AbbVie Inc., priority 2012, dated 2016).
